pIC50: −log10 of the molar value. ≈ marks a conversion by molar mass, not a printed value.
Assays:
[1] = target: T1, Bromodomain-containing protein 4 (Homo sapiens, UniProt O60885); test: Inhibition of BRD4 BD1 (unknown origin) measured by TR-FRET assay
[2] = target: T1, Bromodomain-containing protein 4; test: Inhibition of BRD4 BD2 (unknown origin) measured by TR-FRET assay
[3] = Solubility of the compound in saline by CLND method; assay type: physicochemical
[4] = Lipophilicity, logD of compound at pH 7.4 by Chromatography; assay type: physicochemical; details: buffer
C-C motif chemokine 2 = C-C motif chemokine 2 (Homo sapiens, UniProt P13500); test: Inhibition of MCP-1 in LPS-stimulated human whole blood incubate for 24 hrs by immuno assay; assay type: tissue-based
C-C motif chemokine 2, sequence (P13500 whole entry): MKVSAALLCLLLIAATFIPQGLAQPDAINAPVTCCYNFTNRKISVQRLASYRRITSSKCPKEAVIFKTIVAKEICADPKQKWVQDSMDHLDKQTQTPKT

[5] = Artificial membrane permeability of the compound; assay type: ADME; details: PAMPA; read-out: permeability

`CC(=O)N1CCCc2ccccc21` gave a pIC50 [1] of 3.60 and a pIC50 [2] of 3.90.
For `Cc1noc(C)c1-c1ccccc1`, the pIC50 [1] was 4.30 and the pIC50 [2] was 3.80.
With `COC[C@@H](C)n1c(C2CCOCC2)nc2cnc3cc(-c4c(C)noc4C)c(OC)cc3c21` the pIC50 [1] was 7.40 and the pIC50 [2] was 6.90.
`CCS(=O)(=O)c1ccc2c(c1)C(C(N)=O)=CN(C)C(=O)[C@@H]2C` gave a pIC50 [1] of 5.80, a solubility kinetic [3] of 82 µg/mL (≈ 254 µM) and a pIC50 [2] of 5.50. For the same compound, the chromatographic logD [4] was 1.1, the pIC50 (C-C motif chemokine 2) was 5.70 and the Papp [5] was 1 ×10⁻⁶ cm/s.
`CCOc1ccc2c(c1)C(c1cn[nH]c1)=CN(C)C(=O)[C@@H]2C` gave a pIC50 [1] of 8.20, a solubility kinetic [3] of at least 115 µg/mL and a pIC50 [2] of 8.40. It also gave a chromatographic logD [4] of 3.4, a pIC50 (C-C motif chemokine 2) of 7.60 and a Papp [5] of 37 ×10⁻⁶ cm/s.
For `COCCOc1ccc2c(c1)C=CN(C)C(=O)[C@@H]2C`, the pIC50 [1] was 6.50, the solubility kinetic [3] was at least 128 µg/mL and the pIC50 [2] was 6.10. For the same compound, the chromatographic logD [4] was 4, the pIC50 (C-C motif chemokine 2) was 6.00 and the Papp [5] was 84 ×10⁻⁶ cm/s.
`C[C@H]1C(=O)N(C)C=Cc2cc(CCO)ccc21` gave a pIC50 [1] of 6.40, a solubility kinetic [3] of at least 108 µg/mL and a pIC50 [2] of 5.80. It also gave a chromatographic logD [4] of 2.6, a pIC50 (C-C motif chemokine 2) of 6.00 and a Papp [5] of 24 ×10⁻⁶ cm/s.
For `COc1cc2c(cc1OC)[C@H](C)C(=O)N(C)C=C2`, the pIC50 [1] was 4.90, the pIC50 [2] was 4.30 and the chromatographic logD [4] was 3.4.
With `COc1cc2c(cc1OC)[C@@H](C)C(=O)N(C)CC2` the pIC50 [1] was 5.40, the pIC50 [2] was 4.80 and the chromatographic logD [4] was 2.6.
In the case of `COc1cc2c(cc1OC)CC(=O)N(C)C=C2`, the pIC50 [1] was 5.70, the pIC50 [2] was 5.00 and the chromatographic logD [4] was 2.6.
In the case of `COc1ccc2c(c1)C=CN(C)C(=O)[C@@H]2C`, the pIC50 [1] was 6.20, the pIC50 [2] was 5.80 and the chromatographic logD [4] was 4.3. For the same compound, the Papp [5] was 88 ×10⁻⁶ cm/s.
`Cc1nnc(C)n1-c1ccccc1` gave a pIC50 [1] of under 4.30 and a pIC50 [2] of under 4.30.
In the case of `C[C@H]1C(=O)N(C)C=Cc2cc(C(O)CO)ccc21` (stereo not given in full), the pIC50 [1] was 6.40, the solubility kinetic [3] was at least 101 µg/mL and the pIC50 [2] was 5.70. The chromatographic logD [4] was 1.1, the pIC50 (C-C motif chemokine 2) was 6.00 and the Papp [5] was 2.7 ×10⁻⁶ cm/s.
`C[C@H]1C(=O)N(C)C=Cc2cc(C(CO)CO)ccc21` showed a pIC50 [1] of 6.40, a solubility kinetic [3] of at least 209 µg/mL and a pIC50 [2] of 5.70. The chromatographic logD [4] was 1.2, the pIC50 (C-C motif chemokine 2) was 6.20 and the Papp [5] was 3 ×10⁻⁶ cm/s.
`COc1cc2c(cc1OC)[C@H](C)C(=O)N(C)CC2` showed a pIC50 [1] of 4.20, a pIC50 [2] of 3.80 and a chromatographic logD [4] of 2.5.
In the case of `CCc1ccc2c(c1)C=CN(C)C(=O)[C@@H]2C`, the pIC50 [1] was 6.70, the pIC50 [2] was 6.20 and the chromatographic logD [4] was 5.9. The Papp [5] was 73 ×10⁻⁶ cm/s.
For `C[C@H]1C(=O)N(C)C=Cc2cc(OC(CO)CO)ccc21`, the pIC50 [1] was 6.40, the solubility kinetic [3] was at least 142 µg/mL and the pIC50 [2] was 5.90. It also gave a chromatographic logD [4] of 1.3, a pIC50 (C-C motif chemokine 2) of 6.20 and a Papp [5] of 4.2 ×10⁻⁶ cm/s.
With `Cc1cc(-c2ccccc2)cn(C)c1=O` the pIC50 [1] was 5.50 and the pIC50 [2] was 5.00.
Work on `C[C@H]1C(=O)N(C)C=Cc2cc(CC3CCOCC3)ccc21` yielded a pIC50 [1] of 7.20, a solubility kinetic [3] of at least 111 µg/mL and a pIC50 [2] of 6.50. It also gave a chromatographic logD [4] of 5.4, a pIC50 (C-C motif chemokine 2) of 6.20 and a Papp [5] of 71 ×10⁻⁶ cm/s.
`C[C@H]1C(=O)N(C)C=Cc2cc(CN3CCCC3)ccc21` showed a pIC50 [1] of 6.30, a solubility kinetic [3] of at least 97 µg/mL and a pIC50 [2] of 5.10. The chromatographic logD [4] was 1.5, the pIC50 (C-C motif chemokine 2) was 5.80 and the Papp [5] was 36 ×10⁻⁶ cm/s.
`CCOc1ccc2c(c1)C(c1c[nH]cn1)=CN(C)C(=O)[C@@H]2C` gave a pIC50 [1] of 8.00, a solubility kinetic [3] of at least 131 µg/mL and a pIC50 [2] of 8.00. For the same compound, the chromatographic logD [4] was 2.7, the pIC50 (C-C motif chemokine 2) was 7.30 and the Papp [5] was 46 ×10⁻⁶ cm/s.
Compound `CCOc1ccc2c(c1)C(n1ccnc1)=CN(C)C(=O)C2C` (racemic) has a pIC50 [1] of 4.40, a solubility kinetic [3] of at least 65 µg/mL and a pIC50 [2] of 4.60. It also gave a chromatographic logD [4] of 4.3 and a Papp [5] of 58 ×10⁻⁶ cm/s.
With `CCS(=O)(=O)c1ccc2c(c1)C=CN(C)C(=O)[C@@H]2C` (racemic) the pIC50 [1] was 6.70, the pIC50 [2] was 5.90 and the chromatographic logD [4] was 3.1. It also gave a pIC50 (C-C motif chemokine 2) of 6.40 and a Papp [5] of 42 ×10⁻⁶ cm/s.

Reference: ChEMBL document CHEMBL5214999, “Identification and Optimization of a Ligand-Efficient Benzoazepinone Bromodomain and Extra Terminal (BET) Family Acetyl-Lysine Mimetic into the Oral Candidate Quality Molecule I-BET432” (J Med Chem, 2022)
